{"source": "patent US20240246964A1", "about": "(Arbutus Biopharma Corporation, priority 2021, published 2024)", "key": {"[1]": {"test_system": "MC38 tumors expressing human PD-L1", "assay": "In vivo anti-tumor efficacy in humanized PD-L1 and PD-1 expressing MC38 tumor mouse model", "protocol": "In one aspect, this assay measures the ability of a PD-L1 inhibitor to reduce the size of MC38 (a murine colon adenocarcinoma cell line) tumors in mice, as an indication of the PD-L1 inhibitor's ability to help treat, ameliorate, and/or prevent cancer in the subject.\nIn vivo anti-tumor efficacy of compounds was evaluated in mice expressing humanized PD-1 and PD-L1, in which the extracellular domains of murine PD-1 and PD-L1 were genetically replaced with the human extracellular domain counterparts (Huang et al., Scientific Reports, 2017; 7:42687). Humanized PD-1/PD-L1 (hPD-1/hPD-L1) mice were subcutaneously implanted with the colorectal cancer cell line MC38 expressing human PD-L1 and compound treatment initiated when tumor volumes reached approximately 100 mm^3. Compounds were administered via oral gavage once daily at: 30 mg/kg between study days 1 and 7; or 10 mg/kg for 28 days. The anti-PD-L1 monoclonal antibody atezolizumab was included as a positive reference control and administered via intraperitoneal injection at 0.3 mg/kg thrice weekly between study days 1 and 15. Tumor lengths and widths were measured by digital caliper and tumor volumes were calculated by the formula: […]."}, "[2]": {"target": "PD-L1 His protein / PD-1 Fc protein (Homo sapiens (Human), UniProt Q9NZQ7)", "sequence (Q9NZQ7 19-238)": "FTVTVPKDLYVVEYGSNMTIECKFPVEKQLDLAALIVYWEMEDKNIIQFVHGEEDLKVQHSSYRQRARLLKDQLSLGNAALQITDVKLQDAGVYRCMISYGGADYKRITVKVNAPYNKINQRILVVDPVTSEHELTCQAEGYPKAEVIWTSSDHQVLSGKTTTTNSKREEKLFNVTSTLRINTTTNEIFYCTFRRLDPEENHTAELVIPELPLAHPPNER", "assay": "HTRF Assay (PD-1/PD-L1 interaction)", "type": "binding", "conditions": "PD-L1 His 6 nM, PD-1 Fc 6 nM"}, "[3]": {"test_system": "HBV-specific T cells", "assay": "HBV-specific T cell reinvigoration in vitro assay using PBMCs from chronic hepatitis B patients", "type": "cell-based, human", "conditions": "relative to HBV-specific peptide treatment alone, 24 hours; for Fold Change in IFN-γ Expression of HBV-specific T Cells, Mean ± SD: Mean ± SD of nine chronic hepatitis B donors", "protocol": "In one aspect, this assay measures the ability of a PD-L1 inhibitor to increase HBV specific T cell activity in an infected subject, as measured by the increase in interferon-gamma expression by those T cells.\nThe ability of PD-L1 inhibitor compounds to reinvigorate HBV-specific T cell activity was assessed as described. PBMCs from nine chronic hepatitis B patients were obtained by Ficoll separation of fresh whole blood and frozen in liquid nitrogen as described previously (Park et al., Nature Communications, 2021; 12:1222). Frozen PBMCs were thawed and plated into 12-well plates at 2×10^6 cells/ml. PBMCs were rested overnight at 37° C. before they were stimulated with HBV-specific peptide pools and allowed to proliferate for 5 days. Expanded PBMCs were then restimulated with HBV-specific peptide pools alone or stimulated with HBV-specific peptide pools and incubated with compounds 89, 90, and 139, a negative control, or anti-PD-L1 antibody as reference. Supernatant was obtained after 24 hours and assayed for IFN-γ using the Luminex platform. Fold change increase in IFN-γ expression mediated by compound treatment relative to HBV-specific peptide treatment alone was determined (Table 3)."}, "[4]": {"target": "human PD-L1 (Homo sapiens (Human), UniProt Q9NZQ7)", "sequence (Q9NZQ7 19-290)": "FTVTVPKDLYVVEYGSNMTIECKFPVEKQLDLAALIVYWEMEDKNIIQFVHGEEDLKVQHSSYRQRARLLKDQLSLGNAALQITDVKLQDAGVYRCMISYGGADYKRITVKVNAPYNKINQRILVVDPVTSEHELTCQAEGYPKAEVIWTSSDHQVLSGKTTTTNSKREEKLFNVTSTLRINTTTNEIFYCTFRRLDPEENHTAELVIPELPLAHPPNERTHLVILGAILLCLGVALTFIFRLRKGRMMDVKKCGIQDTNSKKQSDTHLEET", "assay": "T cell activation luciferase reporter cell culture system (T Cell Activation Assay)", "type": "cell-based", "conditions": "luciferase reporter assay; PD-L1 aAPC/CHO-K1 cells with PD-1 effector Jurkat T cells"}}}
{"compound": "atezolizumab", "values": [{"measurement": "Tumor Volume (group mean)", "setting": "[1]; intraperitoneal 0.3 mg/kg thrice weekly, study days 1 to 15, study day 2", "value": 122, "unit": "mm^3"}, {"measurement": "Tumor Volume (group mean)", "setting": "[1]; intraperitoneal 0.3 mg/kg thrice weekly, study days 1 to 15, study day 5", "value": 162, "unit": "mm^3"}, {"measurement": "Tumor Volume (group mean)", "setting": "[1]; intraperitoneal 0.3 mg/kg thrice weekly, study days 1 to 15, study day 9", "value": 156, "unit": "mm^3"}, {"measurement": "Tumor Volume (group mean)", "setting": "[1]; intraperitoneal 0.3 mg/kg thrice weekly, study days 1 to 15, study day 12", "value": 192, "unit": "mm^3"}, {"measurement": "Tumor Volume (group mean)", "setting": "[1]; intraperitoneal 0.3 mg/kg thrice weekly, study days 1 to 15, study day 16", "value": 242, "unit": "mm^3"}, {"measurement": "Tumor Volume (group mean)", "setting": "[1]; intraperitoneal 0.3 mg/kg thrice weekly, study days 1 to 15, study day 19", "value": 243, "unit": "mm^3"}, {"measurement": "Tumor Volume (group mean)", "setting": "[1]; intraperitoneal 0.3 mg/kg thrice weekly, study days 1 to 15, study day 23", "value": 341, "unit": "mm^3"}, {"measurement": "Tumor Volume (group mean)", "setting": "[1]; intraperitoneal 0.3 mg/kg thrice weekly, study days 1 to 15, study day 26", "value": 429, "unit": "mm^3"}, {"measurement": "Tumor Volume (group mean)", "setting": "[1]; intraperitoneal 0.3 mg/kg thrice weekly, study days 1 to 15, study day 28", "value": 472, "unit": "mm^3"}, {"measurement": "Tumor Volume (group mean)", "setting": "[1]; intraperitoneal 0.3 mg/kg thrice weekly, study days 1 to 15, study day −1", "value": 105, "unit": "mm^3"}]}
{"compound": "COc1cc(-c2nccc(-c3cccc(-c4ccc(CN5CC6(CNC(=O)C6)C5)c(OC)n4)c3Cl)c2Cl)ccc1CN1CC2(CNC(=O)C2)C1", "note": "[Compound 89, 2-(4-(3-chloro-4-(2-chloro-3-(6-methoxy-5-((7-oxo-2,6-diazaspiro[3.4]octan-2-yl)methyl)pyridin-2-yl)phenyl)pyridin-2-yl)-2-methoxybenzyl)-2,6-diazaspiro[3.4]octan-7-one]", "values": [{"measurement": "IC50", "setting": "[2]", "value": 0.5, "unit": "nM"}, {"measurement": "Fold Change in IFN-γ Expression of HBV-specific T Cells", "setting": "[3]; Chronic Hepatitis B Donor 1", "value": 2.0, "unit": "Fold Change"}, {"measurement": "Fold Change in IFN-γ Expression of HBV-specific T Cells", "setting": "[3]; Chronic Hepatitis B Donor 2", "value": 2.0, "unit": "Fold Change"}, {"measurement": "Fold Change in IFN-γ Expression of HBV-specific T Cells", "setting": "[3]; Chronic Hepatitis B Donor 3", "value": 1.5, "unit": "Fold Change"}, {"measurement": "Fold Change in IFN-γ Expression of HBV-specific T Cells", "setting": "[3]; Chronic Hepatitis B Donor 4", "value": 3.7, "unit": "Fold Change"}, {"measurement": "Fold Change in IFN-γ Expression of HBV-specific T Cells", "setting": "[3]; Chronic Hepatitis B Donor 5", "value": 1.5, "unit": "Fold Change"}, {"measurement": "Fold Change in IFN-γ Expression of HBV-specific T Cells", "setting": "[3]; Chronic Hepatitis B Donor 6", "value": 2.7, "unit": "Fold Change"}, {"measurement": "Fold Change in IFN-γ Expression of HBV-specific T Cells", "setting": "[3]; Chronic Hepatitis B Donor 7", "value": 1.3, "unit": "Fold Change"}, {"measurement": "Fold Change in IFN-γ Expression of HBV-specific T Cells", "setting": "[3]; Chronic Hepatitis B Donor 8", "value": 2.2, "unit": "Fold Change"}, {"measurement": "Fold Change in IFN-γ Expression of HBV-specific T Cells", "setting": "[3]; Chronic Hepatitis B Donor 9", "value": 1.5, "unit": "Fold Change"}, {"measurement": "Fold Change in IFN-γ Expression of HBV-specific T Cells, Mean ± SD", "setting": "[3]", "value": "2.0 ± 0.8", "unit": "Fold Change"}, {"measurement": "Tumor Volume (group mean)", "setting": "[1]; 10 mg/kg × 28 days, oral gavage once daily, study day 2", "value": 122, "unit": "mm^3"}, {"measurement": "Tumor Volume (group mean)", "setting": "[1]; 10 mg/kg × 28 days, oral gavage once daily, study day 5", "value": 170, "unit": "mm^3"}, {"measurement": "Tumor Volume (group mean)", "setting": "[1]; 10 mg/kg × 28 days, oral gavage once daily, study day 9", "value": 227, "unit": "mm^3"}, {"measurement": "Tumor Volume (group mean)", "setting": "[1]; 10 mg/kg × 28 days, oral gavage once daily, study day 12", "value": 223, "unit": "mm^3"}, {"measurement": "Tumor Volume (group mean)", "setting": "[1]; 10 mg/kg × 28 days, oral gavage once daily, study day 16", "value": 222, "unit": "mm^3"}, {"measurement": "Tumor Volume (group mean)", "setting": "[1]; 10 mg/kg × 28 days, oral gavage once daily, study day 19", "value": 252, "unit": "mm^3"}, {"measurement": "Tumor Volume (group mean)", "setting": "[1]; 10 mg/kg × 28 days, oral gavage once daily, study day 23", "value": 279, "unit": "mm^3"}, {"measurement": "Tumor Volume (group mean)", "setting": "[1]; 10 mg/kg × 28 days, oral gavage once daily, study day 26", "value": 328, "unit": "mm^3"}, {"measurement": "Tumor Volume (group mean)", "setting": "[1]; 10 mg/kg × 28 days, oral gavage once daily, study day 28", "value": 346, "unit": "mm^3"}, {"measurement": "Tumor Volume (group mean)", "setting": "[1]; 10 mg/kg × 28 days, oral gavage once daily, study day −1", "value": 105, "unit": "mm^3"}, {"measurement": "Tumor Volume (group mean)", "setting": "[1]; 30 mg/kg × 7 days, oral gavage once daily, study day 2", "value": 116, "unit": "mm^3"}, {"measurement": "Tumor Volume (group mean)", "setting": "[1]; 30 mg/kg × 7 days, oral gavage once daily, study day 5", "value": 164, "unit": "mm^3"}, {"measurement": "Tumor Volume (group mean)", "setting": "[1]; 30 mg/kg × 7 days, oral gavage once daily, study day 9", "value": 176, "unit": "mm^3"}, {"measurement": "Tumor Volume (group mean)", "setting": "[1]; 30 mg/kg × 7 days, oral gavage once daily, study day 12", "value": 212, "unit": "mm^3"}, {"measurement": "Tumor Volume (group mean)", "setting": "[1]; 30 mg/kg × 7 days, oral gavage once daily, study day 16", "value": 243, "unit": "mm^3"}, {"measurement": "Tumor Volume (group mean)", "setting": "[1]; 30 mg/kg × 7 days, oral gavage once daily, study day 19", "value": 310, "unit": "mm^3"}, {"measurement": "Tumor Volume (group mean)", "setting": "[1]; 30 mg/kg × 7 days, oral gavage once daily, study day 23", "value": 418, "unit": "mm^3"}, {"measurement": "Tumor Volume (group mean)", "setting": "[1]; 30 mg/kg × 7 days, oral gavage once daily, study day 26", "value": 564, "unit": "mm^3"}, {"measurement": "Tumor Volume (group mean)", "setting": "[1]; 30 mg/kg × 7 days, oral gavage once daily, study day 28", "value": 607, "unit": "mm^3"}, {"measurement": "Tumor Volume (group mean)", "setting": "[1]; 30 mg/kg × 7 days, oral gavage once daily, study day −1", "value": 105, "unit": "mm^3"}, {"measurement": "EC50", "setting": "[4]", "value": 16.5, "unit": "nM"}]}
{"compound": "COc1cc(-c2nccc(-c3cccc(-c4ccc(CN5CC6(C5)CN(C(C)=O)C6)c(OC)n4)c3Cl)c2Cl)ccc1CN1CC2(C1)CN(C(C)=O)C2", "note": "[Compound 90, 1-(6-((6-(3-(2-(4-((6-acetyl-2,6-diazaspiro[3.3]heptan-2-yl)methyl)-3-methoxyphenyl)-3-chloropyridin-4-yl)-2-chlorophenyl)-2-methoxypyridin-3-yl)methyl)-2,6-diazaspiro[3.3]heptan-2-yl)ethan-1-one]", "values": [{"measurement": "IC50", "setting": "[2]", "value": 0.7, "unit": "nM"}, {"measurement": "Fold Change in IFN-γ Expression of HBV-specific T Cells", "setting": "[3]; Chronic Hepatitis B Donor 1", "value": 1.7, "unit": "Fold Change"}, {"measurement": "Fold Change in IFN-γ Expression of HBV-specific T Cells", "setting": "[3]; Chronic Hepatitis B Donor 2", "value": 2.2, "unit": "Fold Change"}, {"measurement": "Fold Change in IFN-γ Expression of HBV-specific T Cells", "setting": "[3]; Chronic Hepatitis B Donor 3", "value": 1.9, "unit": "Fold Change"}, {"measurement": "Fold Change in IFN-γ Expression of HBV-specific T Cells", "setting": "[3]; Chronic Hepatitis B Donor 4", "value": 3.0, "unit": "Fold Change"}, {"measurement": "Fold Change in IFN-γ Expression of HBV-specific T Cells", "setting": "[3]; Chronic Hepatitis B Donor 5", "value": 1.2, "unit": "Fold Change"}, {"measurement": "Fold Change in IFN-γ Expression of HBV-specific T Cells", "setting": "[3]; Chronic Hepatitis B Donor 6", "value": 2.5, "unit": "Fold Change"}, {"measurement": "Fold Change in IFN-γ Expression of HBV-specific T Cells", "setting": "[3]; Chronic Hepatitis B Donor 7", "value": 1.5, "unit": "Fold Change"}, {"measurement": "Fold Change in IFN-γ Expression of HBV-specific T Cells", "setting": "[3]; Chronic Hepatitis B Donor 8", "value": 2.1, "unit": "Fold Change"}, {"measurement": "Fold Change in IFN-γ Expression of HBV-specific T Cells", "setting": "[3]; Chronic Hepatitis B Donor 9", "value": 1.2, "unit": "Fold Change"}, {"measurement": "Fold Change in IFN-γ Expression of HBV-specific T Cells, Mean ± SD", "setting": "[3]", "value": "1.9 ± 0.6", "unit": "Fold Change"}, {"measurement": "EC50", "setting": "[4]", "value": 58.3, "unit": "nM"}]}
